These results are taken from patent US9273304B2, “Inactivation method” (Thermo Fisher Scientific Baltics UAB, priority 2006, dated 2016).

The experiment concerns CFTR gene / insulin gene, human DNA. The experiment is described as follows: PCR comparison with commercial hot-start Taq DNA polymerases (sensitivity, Fast PCR, extension time). In kind it is biochemical. How it is done: Sets of PCR reactions were carried out in the Mastercycler (Eppendorf). The reactions were carried out with the following amounts of DNA polymerases: 0.3125 activity units, 0.625 activity units, 1.25 activity units, and 2.5 activity units. These sets of PCR were performed under conditions optimal for each DNA polymerase. The buffers for both the modified DNA polymerase of the current invention and the unmodified DNA polymerase were described in the Examples 7 and 11, while the buffers for the commercial DNA polymerases were those recommended by the vendors. All experiments were performed in the presence of 0.2 mM dNTP, 0.5 μM of each primers and human DNA (100 ng/50 μl). The PCR primers for amplification of the CFTR gene were described in the Example 8.
The PCR components were mixed at room temperature and the reaction was carried using the following cycling profile: 95° C.—4 min; (95° C.—0.5 min, 50° C.—0.5 min, 72° C.—1 min)—40 cycles; 72° C.—7 min, with the exception of the experiments with the HotStarTaq DNA polymerase, were 15 min pre-incubation at 95° C. was used, as recommended by the vendor.
Amplifications and analysis of reaction products were performed as described in the Example 12. The 1.25 activity units of each polymerase were used in the PCR. The following amounts of human DNA were used as templates in the PCR: 0.1 ng, 1 ng, 10 ng, and 100 ng.
Amplifications and analysis of PCR products were performed as described in the Example 12. The 1.25 activity units of each polymerase were used in the PCR. The set of PCR reactions was carried out at 20, 25, 30, 35 and 40 thermal cycles. respectively.
Sets of PCR reactions were carried out in the GeneAmp® PCR System 9700 (Applied Biosystems). The reactions were carried out with 1 activity unit of DNA polymerases. These sets of PCR reactions were performed in 20 μl of the buffers optimal for each. DNA polymerase. The buffers for the modified Tag polymerase and the unmodified Taq DNA polymerases were described in the Examples 7 and 11, while the buffers for the commercial DNA polymerases were those recommended by the vendors. The following commercial DNA polymerases were chosen for comparison: the FastStart Taq DNA polymerase (Roche), the AmpliTaq Gold DNA polymerase (Applied Biosystems), and the HotStarTaq DNA polymerase (Qiagen). All experiments were performed in the presence of 0.2 mM dNTP, 0.5 μM of each PCR primer and human DNA (40 ng/20 μl). The following primers were used for amplification of the insulin gene: […]
The PCR components were mixed in thin-walled PCR tubes on ice and the 500 bp amplicon was generated using the following reaction profile: 95° C.—30 s; (95° C.—0 s, 62° C.—12 s)—30 cycles; 72° C.—10 s.
Amplifications and analysis of PCR products were performed as described in the Example 12. […]

Turning to “Taq DNA polymerase modified with N-etoxycarbonyl-2,3-dimethylmaleinimide: Recombinant Taq DNA polymerase reversibly inactivated by reaction with N-ethoxycarbonyl-2,3-dimethylmaleinimide in aqueous solution (preferred molar ratio 1/110)”, where the note is “FIG. 14”, the “performance in the “Fast PCR” application, compared with DNA polymerases from other vendors” value is given as “superior performance”. In addition, under “FIG. 15”, the “primer extension time, compared with DNA polymerases from other vendors” value is given as “shorter”. The “PCR sensitivity regarding the enzyme concentration, compared with DNA polymerases from other vendors” value (versus HotStarTaq, AmpliTaq Gold, FastStart Taq, FIG. 11) is recorded as “higher sensitivity”. For the same substance, for the setting “versus HotStarTaq, AmpliTaq Gold, FastStart Taq, FIG. 12”, the “PCR sensitivity regarding the target DNA concentration, compared with DNA polymerases from other vendors” value is recorded as “higher sensitivity”.
